# Patent US7670613B2, “Androgen modulators” (Pfizer Inc., priority 2004, dated 2010)
# Like-named read-outs stand apart in the source and are kept apart here.
# Molecular target: T1, hAR (Homo sapiens, UniProt P10275)
# T1 construct: made in house; host or cells: baculovirus/Sf9 insect cells
# T1 sequence (P10275 1-920): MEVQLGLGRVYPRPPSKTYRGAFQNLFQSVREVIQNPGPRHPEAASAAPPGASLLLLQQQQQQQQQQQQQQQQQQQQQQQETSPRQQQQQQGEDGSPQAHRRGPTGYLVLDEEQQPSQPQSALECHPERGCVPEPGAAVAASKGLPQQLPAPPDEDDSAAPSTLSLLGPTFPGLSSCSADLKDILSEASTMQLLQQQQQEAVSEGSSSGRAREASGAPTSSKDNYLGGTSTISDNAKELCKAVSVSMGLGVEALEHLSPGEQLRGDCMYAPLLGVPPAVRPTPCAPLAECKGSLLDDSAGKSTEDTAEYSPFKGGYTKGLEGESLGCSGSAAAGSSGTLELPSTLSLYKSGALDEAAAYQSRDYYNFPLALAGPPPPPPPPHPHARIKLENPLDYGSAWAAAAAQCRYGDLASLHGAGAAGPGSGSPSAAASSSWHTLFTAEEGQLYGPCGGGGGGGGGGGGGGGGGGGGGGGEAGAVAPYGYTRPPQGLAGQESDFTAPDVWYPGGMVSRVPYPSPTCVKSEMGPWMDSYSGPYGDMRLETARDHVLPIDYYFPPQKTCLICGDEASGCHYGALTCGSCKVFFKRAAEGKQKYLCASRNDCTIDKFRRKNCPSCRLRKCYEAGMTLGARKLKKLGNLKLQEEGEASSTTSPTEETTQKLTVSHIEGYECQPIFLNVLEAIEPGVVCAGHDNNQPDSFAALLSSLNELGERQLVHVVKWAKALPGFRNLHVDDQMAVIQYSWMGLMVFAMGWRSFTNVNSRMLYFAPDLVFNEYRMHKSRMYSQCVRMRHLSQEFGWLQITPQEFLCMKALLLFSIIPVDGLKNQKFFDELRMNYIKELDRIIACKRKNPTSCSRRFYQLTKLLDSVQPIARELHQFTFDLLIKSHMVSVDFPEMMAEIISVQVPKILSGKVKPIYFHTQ
# Test: Competitive binding analysis on baculovirus/Sf9 generated hAR extracts with 3H-DHT tracer
# Conditions: 1 nM 3H-DHT, one hour at 4° C., mean of multiple tests
# Experimental: The description below describes how the assay was carried out.
# Competitive binding analysis was performed on baculovirus/Sf9 generated hAR extracts in the presence or absence of different concentrations of test agent and a fixed concentration of ^3H-dihydrotestosterone (^3H-DHT) as tracer. This binding assay method is a modification of a protocol previously described (Liao S., et. al. J. Steroid Biochem. 20:11-17 1984). Briefly, progressively decreasing concentrations of compounds are incubated in the presence of hAR extract (Chang et al. P.N.A.S. Vol. 89, pp. […], 1992), hydroxylapatite, and 1 nM ^3H-DHT for one hour at 4° C. Subsequently, the binding reactions are washed three times to completely remove excess unbound ^3H-DHT. hAR bound ^3H-DHT levels are determined in the presence of compounds (i.e. competitive binding) and compared to levels bound when no competitor is present (i.e. maximum binding). Compound binding affinity to the hAR is expressed as the concentration of compound at which one half of the maximum binding is inhibited.
# [1] = hAR extract, read-out: AR Binding IC50
SMILES,IC50 [1] [nM],"IC50 (AR Binding IC50, hAR extract) [nM]"
"CC1CCCC(Oc2ccc(C#N)c(C(F)(F)F)c2)C1C (centres unmarked) [Example 6, 4-(2,3-Dimethyl-cyclohexyloxy)-2-trifluoromethyl-benzonitrile]",356,–
"N#Cc1ccc(OC2CCCCC2c2ccccc2)cc1Cl (centres unmarked) [Example 29, 2-Chloro-4-(2-phenyl-cyclohexyloxy)-benzonitrile]",–,89
"CC(C)[C@H]1CC[C@H](C)C[C@@H]1Oc1ccc(C#N)cc1Cl [Example 61, (1S,2R,5S)-3-Chloro-4-(2-isopropyl-5methyl-cyclohexyloxy)-benzonitrile]",257,–
C[C@H]1CC[C@@H](Oc2ccc(C#N)c(C(F)(F)F)c2)CC1 [Example 16],479,–
"CC1CCCC(Oc2ccc(C#N)cc2Cl)C1C (centres unmarked) [Example 63, 3-Chloro-4-(2,3-dimethyl-cyclohexyloxy)-benzonitrile]",374,–
"C[C@H]1CCCC[C@@H]1Oc1ccc(C#N)c(Cl)c1 [Example 30, 2-Chloro-4-(2-(S)-methyl-(S)-cyclohexyloxy)-benzonitrile]",–,24
"C[C@@H]1CCC[C@H](Oc2ccc(C#N)c(Cl)c2)C1 [Example 48, (1S,3R)-2-Chloro-4-(3-methyl-cyclohexyloxy)-benzonitrile]",218,–
"N#Cc1ccc(O[C@@H]2CCCC[C@H]2c2ccccc2)cc1Cl [Example 58, (1R,2S) 2-Chloro-4-(2-phenyl-cyclohexyloxy)-benzonitrile]",–,278
"C=C(C)[C@H]1CC[C@H](C)[C@@H](Oc2ccc(C#N)c(C(F)(F)F)c2)C1 [Example 13, (1S,2S,5S)-4-(5-Isopropenyl-2-methyl-cyclohexyloxy)-2-trifluoromethyl-benzonitrile]",102,–
"C=CCO[C@H]1CCC[C@H]1Oc1ccc(C#N)c(Cl)c1 (relative stereo) [Example 37, 4-(cis-2-Allyloxy-cyclopentyloxy)-2-chloro-benzonitrile]",134,–
"CO[C@H]1CCC[C@@H]1Oc1ccc(C#N)c(Cl)c1 (relative stereo) [Example 35, 2-Chloro-4-(trans-2-methoxy-cyclopentyloxy)-benzonitrile]",–,97
"CC1(C)CC(Oc2ccc(C#N)cc2Cl)CC(C)(C)C1 [Example 44, 3-Chloro-4-(3,3,5,5-tetramethyl-cyclohexyloxy)-benzonitrile]",410,–
"C[C@@H]1CCCC[C@H]1Oc1ccc(C#N)cc1Cl [Example 42, (1R,2R)-3-Chloro-4-(2-methyl-cyclohexyloxy)benzonitrile]",343,–
"N#Cc1ccc(OC2CCC2)cc1C(F)(F)F [Example 18, 4-Cyclobutoxy-2-trifluoromethyl-benzonitrile]",466,–
"C[C@@H]1CCC[C@H](Oc2ccc(C#N)cc2Cl)C1 [Example 60, (1S,3R)3-Chloro-4-(3-methyl-cyclohexyloxy)-benzonitrile]",388,–
"C[C@H]1CCC[C@@H]1Oc1ccc(C#N)c(C(F)(F)F)c1 (relative stereo) [Example 2, 4-(trans-2-Methyl-cyclopentyloxy)-2-trifluoromethyl-benzonitrile]",153,–
"C[C@H]1CC[C@H](Oc2ccc(C#N)cc2Cl)CC1 [Example 59, (1S,4R)-3-Chloro-4-(4-methyl-cyclohexyloxy)-benzonitrile]",341,–
"COC1CCC(Oc2ccc(C#N)c(C(F)(F)F)c2)CC1 (centres unmarked) [Example 15, 4-(4-Methoxy-cyclohexyloxy)-2-trifluoromethyl-benzonitrile]",243,–
"C[C@H]1CC(Oc2ccc(C#N)c(Cl)c2)C[C@H](C)C1 (stereo partly drawn) [Example 65, (3R,5R)-2-Chloro-4-(trans)-(3,5-dimethyl-cyclohexyloxy)-benzonitrile]",437,–
"CO[C@@H]1CCCC[C@H]1Oc1ccc(C#N)c(Cl)c1 (relative stereo) [Example 39, 2-Chloro-4-(trans-2-methoxy-cyclohexyloxy)-benzonitrile]",–,76
"N#Cc1ccc(OC2CCCCCC2)cc1C(F)(F)F [Example 5, 4-cycloheptyloxy-2-trifluoromethyl-benzonitrile]",319,–
"C=CCO[C@H]1CCC[C@@H]1Oc1ccc(C#N)c(Cl)c1 (relative stereo) [Example 38, 4-(trans-2-Allyloxy-cyclopentyloxy)-2-chloro-benzonitrile]",120,–
"C[C@H]1CCC[C@@H]1Oc1ccc(C#N)c(C(F)(F)F)c1 [Example 17, (1S,2S)-4-(2-Methyl-cyclopentyloxy)-2-trifluoromethyl-benzonitrile]",252,–
"N#Cc1ccc(O[C@@H]2CCCC[C@@H]2c2ccccc2)cc1Cl [Example 56, (1R,2R)-2-Chloro-4-(2-phenyl-cyclohexyloxy)-benzonitrile]",–,366
"CC1CCCCC1Oc1ccc(C#N)c(Cl)c1 (centres unmarked) [Example 28, 2-Chloro-4-(2-methyl-cyclohexyloxy)-benzonitrile]",–,49
"C[C@@H]1CCC[C@H]1Oc1ccc(C#N)cc1Cl [Example 66, (1R,2R)-3-Chloro-4-(2-methyl-cyclopentyloxy)-benzonitrile]",402,–
"C[C@H]1CC[C@@H](Oc2ccc(C#N)c(Cl)c2)CC1 [Example 54, (1S,4S)-2-Chloro-4-(4-methyl-cyclohexyloxy)-benzonitrile]",356,–
"CC1CCCC(Oc2ccc(C#N)c(Cl)c2)C1C (centres unmarked) [Example 20, 2-Chloro-4-(2,3-dimethyl-cyclohexyloxy)-benzonitrile]",–,227
"CC1CCC(Oc2ccc(C#N)c(Cl)c2)CC1C (centres unmarked) [Example 51, 2-Chloro-4-(3,4-dimethyl-cyclohexyloxy)-benzonitrile]",442,–
